# Columns and labels:
# Type in all cases: cell-based
# Panc-1 cells = experiment: Clonogenic cell survival assay, Panc-1 cells; conditions: for surviving fraction: agent as shown in figure; for CI AZD + 2Gy / CI TTFields + 2Gy + AZD / CI TTFields + AZD: CI>1 synergistic
# Protocol: (§1) Using certain embodiments disclosed herein, TTFields in combination with various inhibitors and/or radiation treatment (IR) were applied to NSCLC cells or pancreatic cancer cells. For example, a predetermined inhibitor at a predetermined concentration was delivered to NSCLC cells or pancreatic cancer cells, and the cells were immediately exposed to TTFields (e.g., 100-250 kHz and 1-20 V/cm v/cm) for about 24, […], or 72 hours. The predetermined concentration was a cell line specific concentration for optimal target cell killing.
# (§2) Olaparib was given concomitant with TTFields. Radiation was given 24, 48 or 72 h after the initiation of TTFields and specific agents. […] Values greater than 1.0 are considered as synergistic, that is, greater than the sum of the individual responses. The following formulas were used for calculating CI: SF=Survival Fraction; CI (TTFields)+(2Gy)=(SF2Gy×SFTTFields)/SF2Gy+TTFields; CI(TTFields)+(Olap)=(SFOlap×SFTTFields)/SFOlap+TTFields; CI (2Gy)+(Olap)=(SF2Gy×SFOlap)/SF2Gy+Olap; and CI (TTFields)+(2Gy)+(Olap)=(SF2Gy×SFOlap×SFTTFields)/SFTTFields+2Gy+Olap. […] Based upon the Highest Single Agent […] approach. The calculation for the Combination Index can be found below.
# (§3) FIGS. 4 and 5 depict example effects of TTFields, AZD6738, radiation, and a combination thereof on non-small cell lung cancer cells (NSCLC) and pancreatic cancer cell, respectively. In particular, FIGS. 4 and 5 show TTFields exposure synergistically increases the effects of ATR inhibitor AZD6738 on NSLCL cells (FIG. 4) survival and pancreatic cancer cell (FIG. 5) survival. TTFields were used together with ATR inhibitor AZD6738 and radiation (IR). A synergistic effect was observed when AZD6738 and IR were combined with TTFields using the highest single agent (HSA) approach. The following formulas were used for calculating CI: SF=Survival Fraction; CI (TTFields)+(2Gy)=(SF2Gy×SFTTFields)/SF2Gy+TTFields; CI(TTFields)+(AZD)=(SFAZD×SFTTFields)/SFAZD+TTFields; CI (2Gy)+(AZD)=(SF2Gy×SFAZD)/SF2Gy+AZD; and CI (TTFields)+(2Gy)+(AZD)=(SF2Gy×SFAZD×SFTTFields)/SFTTFields+2Gy+AZD.
# (§4) The following formulas are used for calculating the combination Index: SF=Survival Fraction; CI (TTFields)+(2Gy)=(SF2Gy×SFTTFields)/SF2Gy+TTFields; CI(TTFields)+(Irino)=(SFIrino×SFTTFields)/SFIrino+TTFields; CI (2Gy)+(Irino)=(S2Gy×SFIrino)SF2Gy+Irino; and CI (TTFields)+(2Gy)+(Irino)=(SF2Gy×SFIrino×SFTTFields)/SFTTFields+2Gy+Irino.
# 04.03 cells = experiment: Clonogenic cell survival assay, 04.03 cells; conditions: for surviving fraction: agent as shown in figure; for CI AZD + 2Gy / CI TTFields + 2Gy + AZD / CI TTFields + AZD: CI>1 synergistic
# Protocol: as §1, §2, §3
# H1299 cells [1] = experiment: Clonogenic cell survival assay, H1299 cells; conditions: for CI 5FU + 2Gy / CI TTFields + 5FU / CI TTFields + 5FU + 2Gy / CI AZD + 2Gy / CI TTFields + 2Gy + AZD / CI TTFields + AZD / CI TTFields + CP: CI>1 synergistic; for surviving fraction: agent as shown in figure
# Protocol: as §1, with “killing. Then, the cells were irradiated (at a dose of 2Gy) for less than a minute (e.g., 3.25 Gy/min) and immediately plated for survival.” for “killing.”
# as §3, §4
# H157 cells [2] = experiment: Clonogenic cell survival assay, H157 cells; conditions: for CI 5FU + 2Gy / CI TTFields + 5FU / CI TTFields + 5FU + 2Gy / CI AZD + 2Gy / CI TTFields + 2Gy + AZD / CI TTFields + AZD / CI TTFields + CP: CI>1 synergistic; for surviving fraction: agent as shown in figure
# Protocol: as §1, with “killing. Then, the cells were irradiated (at a dose of 2Gy) for less than a minute (e.g., 3.25 Gy/min) and immediately plated for survival.” for “killing.”
# as §3, §4
# H1299 cells [3] = experiment: Clonogenic cell survival assay, H1299 cells; conditions: 48 h, CI>1 synergistic
# H157 cells [4] = experiment: Clonogenic cell survival assay, H157 cells; conditions: 48 h, CI>1 synergistic
# NSCLC = experiment: Cell survival of NSCLC cells with CP/ETP with/without TTFields (FIG. 6); conditions: HSA approach
# Protocol: as §1, with “killing. Then, the cells were irradiated (at a dose of 2Gy) for less than a minute (e.g., 3.25 Gy/min) and immediately plated for survival.” for “killing.”
# FIG. 6 depicts example effects of TTFields, Cisplatin, Etoposide, and a combination thereof on NSCLC. […] CP and ETP were tested alone or in combination and with/without TTFields.
compound,measurement,setting,value
"O=c1[nH]cc(F)c(=O)[nH]1 [5FU, 5-Fluorouracil]","effect of combinations of TTFields, agent and/or IR on cell survival",Panc-1 cells,synergistic effects
same,surviving fraction,Panc-1 cells,significantly reduced
same,"effect of combinations of TTFields, agent and/or IR on cell survival",04.03 cells,synergistic effects
same,surviving fraction,04.03 cells,significantly reduced
same,"effect of combinations of TTFields, agent and/or IR on cell survival",H1299 cells [1],synergistic effects
same,CI 5FU + 2Gy,H1299 cells [1]; 24 h,1.254
same,CI TTFields + 5FU,H1299 cells [1]; 24 h,1.352
same,CI TTFields + 5FU + 2Gy,H1299 cells [1]; 24 h,1.762
same,CI 5FU + 2Gy,H1299 cells [1]; 48 h,0.950
same,CI TTFields + 5FU,H1299 cells [1]; 48 h,1.348
same,CI TTFields + 5FU,H1299 cells [1]; 72 h,1.326
same,CI TTFields + 5FU + 2Gy,H1299 cells [1]; 72 h,1.345
same,surviving fraction,H1299 cells [1],significantly reduced
same,"effect of combinations of TTFields, agent and/or IR on cell survival",H157 cells [2],synergistic effects
same,CI 5FU + 2Gy,H157 cells [2]; 24 h,0.894
same,CI TTFields + 5FU,H157 cells [2]; 24 h,1.559
same,CI TTFields + 5FU + 2Gy,H157 cells [2]; 24 h,1.433
same,CI 5FU + 2Gy,H157 cells [2]; 48 h,0.962
same,CI TTFields + 5FU + 2Gy,H157 cells [2]; 48 h,1.783
same,CI 5FU + 2Gy,H157 cells [2]; 72 h,1.125
same,CI TTFields + 5FU,H157 cells [2]; 72 h,1.106
same,CI TTFields + 5FU + 2Gy,H157 cells [2]; 72 h,1.658
same,surviving fraction,H157 cells [2],significantly reduced
same,CI TTFields + 5FU + 2Gy,H1299 cells [3],1.263
same,CI TTFields + 5FU,H157 cells [4],1.252
"C[C@@H]1COCCN1c1cc(C2([S@](C)(=N)=O)CC2)nc(-c2cc[nH]c3nccc2-3)n1 [AZD, Ceralasertib (AZD6738)]","effect of combinations of TTFields, agent and/or IR on cell survival",Panc-1 cells,synergistic effects
same,CI AZD + 2Gy,Panc-1 cells; 24 h,0.894
same,CI TTFields + 2Gy + AZD,Panc-1 cells; 24 h,1.068
same,CI TTFields + AZD,Panc-1 cells; 24 h,1.088
same,CI AZD + 2Gy,Panc-1 cells; 48 h,0.879
same,CI TTFields + 2Gy + AZD,Panc-1 cells; 48 h,1.153
same,CI TTFields + AZD,Panc-1 cells; 48 h,0.970
same,CI AZD + 2Gy,Panc-1 cells; 72 h,1.030
same,CI TTFields + 2Gy + AZD,Panc-1 cells; 72 h,1.514
same,CI TTFields + AZD,Panc-1 cells; 72 h,1.072
same,surviving fraction,Panc-1 cells,significantly reduced
same,"effect of combinations of TTFields, agent and/or IR on cell survival",04.03 cells,synergistic effects
same,CI AZD + 2Gy,04.03 cells; 24 h,1.018
same,CI TTFields + 2Gy + AZD,04.03 cells; 24 h,1.272
same,CI TTFields + AZD,04.03 cells; 24 h,1.049
same,CI AZD + 2Gy,04.03 cells; 48 h,1.158
same,CI TTFields + 2Gy + AZD,04.03 cells; 48 h,2.394
same,CI TTFields + AZD,04.03 cells; 48 h,1.550
same,CI AZD + 2Gy,04.03 cells; 72 h,1.011
same,CI TTFields + 2Gy + AZD,04.03 cells; 72 h,2.674
same,CI TTFields + AZD,04.03 cells; 72 h,1.287
same,surviving fraction,04.03 cells,significantly reduced
same,"effect of combinations of TTFields, agent and/or IR on cell survival",H1299 cells [1],synergistic effects
same,CI AZD + 2Gy,H1299 cells [1]; 24 h,1.127
same,CI TTFields + 2Gy + AZD,H1299 cells [1]; 24 h,3.553
same,CI TTFields + AZD,H1299 cells [1]; 24 h,1.070
same,CI TTFields + 2Gy + AZD,H1299 cells [1]; 48 h,2.535
same,CI AZD + 2Gy,H1299 cells [1]; 72 h,1.143
same,CI TTFields + 2Gy + AZD,H1299 cells [1]; 72 h,2.206
same,CI TTFields + AZD,H1299 cells [1]; 72 h,1.092
same,surviving fraction,H1299 cells [1],significantly reduced
same,"effect of combinations of TTFields, agent and/or IR on cell survival",H157 cells [2],synergistic effects
same,CI AZD + 2Gy,H157 cells [2]; 24 h,1.498
same,CI TTFields + 2Gy + AZD,H157 cells [2]; 24 h,2.430
same,CI TTFields + AZD,H157 cells [2]; 24 h,1.048
same,CI AZD + 2Gy,H157 cells [2]; 48 h,1.292
same,CI TTFields + 2Gy + AZD,H157 cells [2]; 48 h,2.062
same,CI AZD + 2Gy,H157 cells [2]; 72 h,3.115
same,CI TTFields + 2Gy + AZD,H157 cells [2]; 72 h,4.874
same,CI TTFields + AZD,H157 cells [2]; 72 h,1.036
same,surviving fraction,H157 cells [2],significantly reduced
same,CI AZD + 2Gy,H1299 cells [3],1.215
same,CI TTFields + AZD,H1299 cells [3],1.242
same,CI TTFields + AZD,H157 cells [4],1.072
"N.N.[Cl][Pt][Cl] [CP, Cisplatin]",CI TTFields + CP,H1299 cells [1]; 24 h,1.140
same,CI TTFields + CP,H1299 cells [1]; 48 h,1.021
same,CI TTFields + CP,H1299 cells [1]; 72 h,1.225
same,CI TTFields + CP,H157 cells [2]; 24 h,0.887
same,CI TTFields + CP,H157 cells [2]; 48 h,0.869
same,CI TTFields + CP,H157 cells [2]; 72 h,1.079
same,cell killing capacity in combination with TTFields,NSCLC,synergistically enhanced

# Source: patent US20220288404A1, “METHODS FOR APPLYING TUMOR TREATING FIELDS IN COMBINATION WITH CANCER TREATING THERAPEUTICS” (THE BOARD OF REGENTS OF THE UNIVERSITY OF TEXAS SYSTEM, priority 2021, published 2022)
